From PubChem BioAssay (NCI)
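1) Cells in 96-well plates. 2) Compound, 48 h, 5 concentrations. 3) Linear interpolation between surrounding doses. 4) Unreached endpoint = highest concentration. TGI denotes the concentration required for complete inhibition of growth.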

How the values were obtained:
Assay in all cases: growth of human tumour cells (NCI), 48 h
CCRF-CEM leukemia = tested on: CCRF-CEM leukemia
COLO 205 colon = tested on: COLO 205 colon
EKVX NSCLC = tested on: EKVX NSCLC
HCC-2998 colon = tested on: HCC-2998 colon
HOP-62 NSCLC = tested on: HOP-62 NSCLC
HT29 colon = tested on: HT29 colon
IGROV1 ovarian = tested on: IGROV1 ovarian
LOX IMVI melanoma = tested on: LOX IMVI melanoma
MOLT-4 leukemia = tested on: MOLT-4 leukemia
NCI-H226 lung = tested on: NCI-H226 lung
NCI-H23 lung = tested on: NCI-H23 lung
RXF 393 renal = tested on: RXF 393 renal
SK-MEL-2 melanoma = tested on: SK-MEL-2 melanoma
SK-MEL-28 melanoma = tested on: SK-MEL-28 melanoma
SK-MEL-5 melanoma = tested on: SK-MEL-5 melanoma
SN12C renal = tested on: SN12C renal
SW-620 colon = tested on: SW-620 colon
UACC-62 melanoma = tested on: UACC-62 melanoma
CAKI-1 renal = tested on: CAKI-1 renal
HOP-92 NSCLC = tested on: HOP-92 NSCLC

SMILES	TGI (CCRF-CEM leukemia) [µM]	TGI (COLO 205 colon) [µM]	TGI (EKVX NSCLC) [µM]	TGI (HCC-2998 colon) [µM]	TGI (HOP-62 NSCLC) [µM]	TGI (HT29 colon) [µM]	TGI (IGROV1 ovarian) [µM]	TGI (LOX IMVI melanoma) [µM]	TGI (MOLT-4 leukemia) [µM]	TGI (NCI-H226 lung) [µM]	TGI (NCI-H23 lung) [µM]	TGI (RXF 393 renal) [µM]	TGI (SK-MEL-2 melanoma) [µM]	TGI (SK-MEL-28 melanoma) [µM]	TGI (SK-MEL-5 melanoma) [µM]	TGI (SN12C renal) [µM]	TGI (SW-620 colon) [µM]	TGI (UACC-62 melanoma) [µM]	TGI (CAKI-1 renal) [µM]	TGI (HOP-92 NSCLC) [µM]
CC(C)CCCC(C)[C@H]1CCC(C2C[C@@H](O)[C@@H]3CC(O)[C@@H](O)C[C@]3(CO)C2=O)[C@]1(C)CCO (some centres not stated)	40.9	35	> 94.9	38.4	52.8	36.3	42.4	39.3	22.4	> 73.8	> 90.5	53.3	39.7	40.5	18.8	> 74.1	52.7	34.5	–	–
N#Cc1ccccc1NC(=O)C(=O)C(C(=O)c1ccccc1F)C1OC(=O)c2ccccc21 (configuration not stated)	37.9	> 100	> 100	53.4	> 100	> 100	> 100	> 100	> 100	64.4	> 100	87.6	68.8	> 100	> 100	> 100	> 100	> 100	> 100	> 100
CC(=O)C(=Cc1cn(C)c(=O)n(C)c1=O)C(C)=O	294	189	323	264	400	278	470	171	382	293	194	148	255	209	176	216	302	148	224	8.16
C/C(=C1\N=C(c2ccccc2)OC1=O)c1ccccc1	> 100	> 100	> 100	> 100	> 100	> 100	> 100	> 100	> 100	> 100	> 100	–	> 100	> 100	> 100	–	> 100	> 100	> 100	> 100
C=CCC(O[Si](C)(C)C(C)(C)C)c1cc(O[Si](C)(C)C(C)(C)C)ccc1OC (configuration not stated)	> 100	> 100	> 100	> 100	> 100	> 100	> 100	> 100	> 100	> 100	> 100	> 100	> 100	> 100	> 100	> 100	> 100	> 100	> 100	86.6
COC1/C=C/C(C)C(O)CC(O)/C=C/C(C)C(C(C)C(OC)C(C)CCC(=O)C(C)C(C/C=C/N(C)C=O)OC)OC(=O)/C=C/C=C(\C)CC(OC)CC2=CC(=O)O[C@@H](C(C)C(OC)C1)[C@H]2O (some centres not stated)	2.98	0.0885	0.266	–	0.0257	0.741	0.0689	–	28.2	–	0.0437	0.0112	–	0.155	< 0.005	1.78	0.267	0.019	0.0192	0.0106
COc1ccccc1NC(=O)C(=O)C(C(=O)c1ccccc1F)C1OC(=O)c2ccccc21 (configuration not stated)	67	43.6	> 100	28.8	> 100	62.5	> 100	39.2	> 100	43.8	57.6	68.4	> 100	> 100	> 100	87.2	> 100	34.9	86.7	> 100
